Results: PubChem BioAssay AID248 (DTP/NCI, 2004)
“And” between values parts separate entries of the source, which are not always exact repeats. Equal entries are not always repeated. Inconclusive results and toxic doses are left out. No stated cut-off is given here; in the data, active means T/C of 150% or more; inactive means T/C below 125%.

System: L1210 leukemia ip in BDF1 mice, survival T/C
Assay: NCI In Vivo Anticancer Drug Screen. Data for tumor model L1210 Leukemia (intraperitoneal) in B6D2F1 (BDF1) mice
Conditions: endpoint: mean survival time, higher = longer survival
Method in brief: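 Survival endpoint. Drug-treated group vs vehicle group, expressed as T divided by C. Tumor passaged by transplantation.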

[1] = dose: 100.0 mg/kg/injection, schedule: Q01DX001 (ip), vehicle: Klucel (hydroxypropylcellulose) (HPC)
[2] = dose: 100.0 mg/kg/injection, schedule: Q04DX002 (ip), vehicle: Klucel (hydroxypropylcellulose) (HPC)
[3] = dose: 400.0 mg/kg/injection, schedule: Q04DX002 (ip), vehicle: Klucel (hydroxypropylcellulose) (HPC)
[4] = dose: 100.0 mg/kg/injection, schedule: Q01DX009 (ip), vehicle: Klucel (hydroxypropylcellulose) (HPC)
[5] = dose: 100.0 mg/kg/injection, schedule: Q04DX003 (ip), vehicle: Klucel (hydroxypropylcellulose) (HPC)
[6] = dose: 200.0 mg/kg/injection, schedule: Q01DX009 (ip), vehicle: Klucel (hydroxypropylcellulose) (HPC)
[7] = dose: 400.0 mg/kg/injection, schedule: Q01DX009 (ip), vehicle: Klucel (hydroxypropylcellulose) (HPC)
[8] = dose: 50.0 mg/kg/injection, schedule: Q01DX009 (ip), vehicle: saline with Tween-80
[9] = dose: 100.0 mg/kg/injection, schedule: Q01DX009 (ip), vehicle: saline with Tween-80
[10] = dose: 200.0 mg/kg/injection, schedule: Q01DX009 (ip), vehicle: saline with Tween-80
[11] = dose: 50.0 mg/kg/injection, schedule: Q01DX009 (ip), vehicle: saline
[12] = dose: 100.0 mg/kg/injection, schedule: Q01DX009 (ip), vehicle: saline
[13] = dose: 100.0 mg/kg/injection, schedule: Q04DX003 (ip), vehicle: saline
[14] = dose: 200.0 mg/kg/injection, schedule: Q04DX003 (ip), vehicle: saline
[15] = dose: 400.0 mg/kg/injection, schedule: Q04DX003 (ip), vehicle: saline

Measured: T/C

CCOC(=O)c1cnc(SC)nc1Nc1ccc([N+](=O)[O-])cc1
inactive: dose: 25.0 mg/kg/injection, schedule: Q01DX001 (ip), vehicle: Klucel (hydroxypropylcellulose) (HPC) 91 % of control | dose: 50.0 mg/kg/injection, schedule: Q01DX001 (ip), vehicle: Klucel (hydroxypropylcellulose) (HPC) 89 % of control | [1] 90 % of control

C(=N/Sc1ccccc1)/c1ccccc1
inactive: [2] 98 % of control | dose: 200.0 mg/kg/injection, schedule: Q04DX002 (ip), vehicle: Klucel (hydroxypropylcellulose) (HPC) 98 % of control | [3] 112 % of control

CCOC12c3cc(OC)ccc3N(S(=O)(=O)c3ccc(C)cc3)CC1C2(Br)Br (stereo unspecified)
inactive: [4] 97 % of control | [5] 100 % of control | [6] 87 % of control | dose: 200.0 mg/kg/injection, schedule: Q04DX003 (ip), vehicle: Klucel (hydroxypropylcellulose) (HPC) 100 % of control | [7] 94 % of control | dose: 400.0 mg/kg/injection, schedule: Q04DX003 (ip), vehicle: Klucel (hydroxypropylcellulose) (HPC) 91 % of control

CCc1nc(N)nc(N)c1-c1ccc(Cl)cc1.[O]=[Zn]
inactive: dose: 15.0 mg/kg/injection, schedule: Q01DX015 (ip), vehicle: carboxymethylcellulose (CMC) 96 % of control | dose: 30.0 mg/kg/injection, schedule: Q01DX015 (ip), vehicle: carboxymethylcellulose (CMC) 96 % of control | dose: 60.0 mg/kg/injection, schedule: Q01DX015 (ip), vehicle: carboxymethylcellulose (CMC) 123 % of control | dose: 100.0 mg/kg/injection, schedule: Q01DX001 (ip), vehicle: carboxymethylcellulose (CMC) 92 % of control | dose: 120.0 mg/kg/injection, schedule: Q01DX015 (ip), vehicle: carboxymethylcellulose (CMC) 124 % of control | dose: 200.0 mg/kg/injection, schedule: Q01DX001 (ip), vehicle: carboxymethylcellulose (CMC) 93 % of control

Cc1ccc(CN2C(=O)C=CC2=O)cc1
inactive: dose: 12.5 mg/kg/injection, schedule: Q04DX002 (ip), vehicle: Klucel (hydroxypropylcellulose) (HPC) 102 % of control | dose: 25.0 mg/kg/injection, schedule: Q04DX002 (ip), vehicle: Klucel (hydroxypropylcellulose) (HPC) 102 % of control

CCOC(=O)C(C)C1(c2ccccc2)OC(=O)c2ccccc21 (stereo unspecified)
inactive: dose: 100.0 mg/kg/injection, schedule: Q04DX002 (ip), vehicle: saline with Tween-80 108 % of control | dose: 200.0 mg/kg/injection, schedule: Q04DX002 (ip), vehicle: saline with Tween-80 112 % of control | dose: 400.0 mg/kg/injection, schedule: Q04DX002 (ip), vehicle: saline with Tween-80 97 % of control

Cc1cc(C)nc(N)c1
inactive: dose: 12.5 mg/kg/injection, schedule: Q04DX002 (ip), vehicle: saline 105 % of control | dose: 25.0 mg/kg/injection, schedule: Q04DX002 (ip), vehicle: saline 114 % of control

CC1=C(OCC(C)C)CCCC1=O
inactive: [8] 88 % of control | [9] 96 % of control | [10] 96 % of control

NC(=O)C(O)C(O)C(O)C(O)C(N)=O (stereo unspecified)
inactive: [11] 100 % of control | [12] 98 % of control | [13] 92 % of control | dose: 200.0 mg/kg/injection, schedule: Q01DX009 (ip), vehicle: saline 93 % of control | [14] 93 % of control

CCCCCCCCCCOC(CN)C(Cl)(Cl)Cl (stereo unspecified)
inactive: dose: 12.5 mg/kg/injection, schedule: Q01DX009 (ip), vehicle: saline with Tween-80 93 % of control | dose: 12.5 mg/kg/injection, schedule: Q04DX003 (ip), vehicle: saline with Tween-80 98 % of control | dose: 25.0 mg/kg/injection, schedule: Q01DX009 (ip), vehicle: saline with Tween-80 97 % of control | dose: 25.0 mg/kg/injection, schedule: Q04DX003 (ip), vehicle: saline with Tween-80 101 % of control | dose: 50.0 mg/kg/injection, schedule: Q04DX003 (ip), vehicle: saline with Tween-80 103 % of control

C[Si](C)(C)c1c(F)c(F)c(F)c(F)c1F
inactive: [9] 102 % of control | [10] 94 % of control | dose: 400.0 mg/kg/injection, schedule: Q01DX009 (ip), vehicle: saline with Tween-80 97 % of control

CN(Cc1ccccc1)C(=O)c1ccc(Cl)cc1
inactive: [4] 111 % of control | [2] 101 % of control | [6] 105 % of control | [7] 100 % of control | [3] 89 % of control

N#CCC1=Cc2ccccc2CC1
inactive: dose: 6.25 mg/kg/injection, schedule: Q01DX005 (ip), vehicle: saline 109 % of control | dose: 12.5 mg/kg/injection, schedule: Q01DX005 (ip), vehicle: saline 102 % of control | dose: 25.0 mg/kg/injection, schedule: Q01DX005 (ip), vehicle: saline 102 % of control | dose: 50.0 mg/kg/injection, schedule: Q01DX005 (ip), vehicle: saline 106 % of control and 107 % of control

O=P(NCCO)(OCC(Br)CBr)OCC(Br)CBr (stereo unspecified)
inactive: [8] 94 % of control | [9] 102 % of control | [10] 98 % of control

Cc1cc(C)c(C)c(NC(=O)NCCCl)c1C
inactive: [1] 92 % of control | dose: 200.0 mg/kg/injection, schedule: Q01DX001 (ip), vehicle: Klucel (hydroxypropylcellulose) (HPC) 88 % of control

O=C(CCCC(=O)NNC(=O)Nc1cccc([N+](=O)[O-])c1)NNC(=O)Nc1cccc([N+](=O)[O-])c1
inactive: dose: 50.0 mg/kg/injection, schedule: Q01DX001 (ip), vehicle: saline 102 % of control | dose: 100.0 mg/kg/injection, schedule: Q01DX001 (ip), vehicle: saline 102 % of control | dose: 200.0 mg/kg/injection, schedule: Q01DX001 (ip), vehicle: saline 96 % of control | dose: 400.0 mg/kg/injection, schedule: Q01DX001 (ip), vehicle: saline 102 % of control

CC(=O)Nc1ccc2ccccc2c1-c1c(NC(C)=O)ccc2ccccc12
inactive: dose: 25.0 mg/kg/injection, schedule: Q04DX002 (ip), vehicle: saline with Tween-80 97 % of control | dose: 50.0 mg/kg/injection, schedule: Q04DX002 (ip), vehicle: saline with Tween-80 90 % of control

O=C1CCCCC1(O)C[N+](=O)[O-] (stereo unspecified)
inactive: dose: 75.0 mg/kg/injection, schedule: Q01DX001 (ip), vehicle: carboxymethylcellulose (CMC) 96 % of control

CSc1nc2nc(Cl)c(Cl)nc2[nH]1
inactive: dose: 12.5 mg/kg/injection, schedule: Q01DX009 (ip), vehicle: saline 105 % of control | dose: 25.0 mg/kg/injection, schedule: Q01DX009 (ip), vehicle: saline 102 % of control and 104 % of control | [11] 102 % of control | [12] 98 % of control | [13] 97 % of control | [14] 98 % of control | [15] 108 % of control

C1CN(CSCN2CCOCC2)CCO1
inactive: [13] 106 % of control | [14] 97 % of control | [15] 97 % of control

CCOc1ccccc1NC(=O)c1ccc(Cl)cc1Cl
inactive: dose: 50.0 mg/kg/injection, schedule: Q01DX009 (ip), vehicle: Klucel (hydroxypropylcellulose) (HPC) 92 % of control | [4] 92 % of control | [5] 89 % of control | [6] 86 % of control
